Data from ChEMBL document CHEMBL1150898, “Synthesis and dopamine receptor selectivity of the benzyltetrahydroisoquinoline, (R)-(+)-nor-roefractine” (J Nat Prod, 1998).

Columns and labels:
D(2) dopamine receptor = D(2) dopamine receptor (Rattus norvegicus, UniProt P61169); test: Displacement of [3H]raclopride from rat striatal dopamine D2 receptor
D(1A) dopamine receptor = D(1A) dopamine receptor (Rattus norvegicus, UniProt P18901); test: Displacement of [3H]SCH-23390 from rat striatal dopamine D1 receptor
Sequence of D(1A) dopamine receptor (P18901 whole entry): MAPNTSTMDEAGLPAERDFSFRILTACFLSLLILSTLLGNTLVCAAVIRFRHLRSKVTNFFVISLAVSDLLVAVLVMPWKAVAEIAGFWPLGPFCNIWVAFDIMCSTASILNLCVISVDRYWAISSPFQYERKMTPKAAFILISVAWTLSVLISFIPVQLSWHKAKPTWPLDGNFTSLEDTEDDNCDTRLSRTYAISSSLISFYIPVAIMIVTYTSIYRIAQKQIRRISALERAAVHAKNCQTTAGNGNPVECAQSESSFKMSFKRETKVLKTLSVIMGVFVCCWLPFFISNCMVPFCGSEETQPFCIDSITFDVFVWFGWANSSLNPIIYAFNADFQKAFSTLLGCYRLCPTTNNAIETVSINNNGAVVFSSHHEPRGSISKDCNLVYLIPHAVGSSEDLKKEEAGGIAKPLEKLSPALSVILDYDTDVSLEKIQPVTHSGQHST

Rattus norvegicus = organism: Rattus norvegicus; test: Selectivity for rat striatal dopamine D2 receptor over rat striatal dopamine D1 receptor

Sequence of D(2) dopamine receptor (P61169 whole entry): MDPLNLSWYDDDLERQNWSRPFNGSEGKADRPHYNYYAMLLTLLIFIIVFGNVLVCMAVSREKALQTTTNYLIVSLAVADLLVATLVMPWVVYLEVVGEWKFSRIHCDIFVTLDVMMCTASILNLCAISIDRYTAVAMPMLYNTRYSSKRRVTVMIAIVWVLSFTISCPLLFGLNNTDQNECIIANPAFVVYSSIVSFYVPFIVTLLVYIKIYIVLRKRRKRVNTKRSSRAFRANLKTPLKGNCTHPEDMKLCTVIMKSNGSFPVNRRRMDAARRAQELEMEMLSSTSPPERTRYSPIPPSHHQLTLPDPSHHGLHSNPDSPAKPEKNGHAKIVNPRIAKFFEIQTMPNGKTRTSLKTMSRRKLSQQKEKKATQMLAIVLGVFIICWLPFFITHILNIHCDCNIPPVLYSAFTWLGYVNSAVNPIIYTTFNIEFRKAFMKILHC

Structure (SMILES) | IC50 (D(2) dopamine receptor) [nM] | IC50 (D(1A) dopamine receptor) [nM] | Selectivity ratio (Rattus norvegicus)
COc1ccc(C[C@H]2NCCc3cc(O)c(OC)cc32)cc1 [NOR-ROEFRACTINE] | 5000 | 32900 | 6
COc1cc2c(cc1O)[C@@H](Cc1ccc(O)cc1)NCC2 | 130 | 240 | 
